In ChEMBL document CHEMBL1152396, “Cardenolides from Pergularia tomentosa display cytotoxic activity resulting from their potent inhibition of Na+/K+-ATPase” (J Nat Prod, 2009):
Active and inactive are the calls of the source. No cut-off for these calls is given here.

Legend:
A549 [1] = assay: Induction of human A549 cell death assessed as morphological changes at 200 nM after 3 days by video microscopy; type: functional, cell-based
U-373MG ATCC [2] = assay: Induction of human U373 cell death assessed as morphological changes at 400 nM after 3 days by video microscopy; type: functional, cell-based
MCF7 = assay: Antiproliferative activity against human MCF7 cells after 72 hrs by MTT assay; type: functional, cell-based; settings: MCF7, 72 h
A549 [3] = assay: Antiproliferative activity against human A549 cells after 72 hrs by MTT assay; type: functional, cell-based; settings: A549, 72 h
LoVo = assay: Antiproliferative activity against human LoVo cells after 72 hrs by MTT assay; type: functional, cell-based
PC-3 = assay: Antiproliferative activity against human PC3 cells after 72 hrs by MTT assay; type: functional, cell-based; settings: PC-3, 72 h
BXPC-3 = assay: Antiproliferative activity against human BxPC3 cells after 72 hrs by MTT assay; type: functional, cell-based; settings: BXPC-3, 72 h
[4] = Antiproliferative activity against human U373 cells after 72 hrs by MTT assay; type: functional, cell-based, U-373MG ATCC; settings: U373 MG
[5] = Inhibition of pig cerebral cortex Na+/K+-ATPase by colorimetric microplate-based assay; type: tissue-based, Sus scrofa
A549 [6] = assay: Induction of human A549 cell growth delay assessed as morphological changes at 200 nM after 3 days by video microscopy; type: functional, cell-based
U-373MG ATCC [7] = assay: Induction of human U373 cell growth delay assessed as morphological changes at 400 nM after 3 days by video microscopy; type: functional, cell-based
A549 [8] = assay: Induction of human A549 cell death assessed as morphological changes at 80 nM after 3 days by video microscopy; type: functional, cell-based
A549 [9] = assay: Induction of human A549 cell growth delay assessed as morphological changes at 80 nM after 3 days by video microscopy; type: functional, cell-based
A549 [10] = assay: Induction of human A549 cell growth delay assessed as morphological changes at 800 nM after 3 days by video microscopy; type: functional, cell-based
U-373MG ATCC [11] = assay: Induction of human U373 cell death assessed as morphological changes at 3.4 uM after 3 days by video microscopy; type: functional, cell-based
A549 [12] = assay: Induction of human A549 cell death assessed as morphological changes at 800 nM after 3 days by video microscopy; type: functional, cell-based
U-373MG ATCC [13] = assay: Induction of human U373 cell growth delay assessed as morphological changes at 3.4 uM after 3 days by video microscopy; type: functional, cell-based
Sus scrofa = species: Sus scrofa; assay: Inhibition of pig cerebral cortex Na+/K+ ATPase at 1 mM by colorimetric microplate-based assay; type: tissue-based

| Compound | Activity (A549 [1]) | Activity (U-373MG ATCC [2]) | IC50 (MCF7) [µM] | IC50 (A549 [3]) [µM] | IC50 (LoVo) [µM] | IC50 (PC-3) [µM] | IC50 (BXPC-3) [µM] | IC50 [4] [µM] | IC50 [5] [µM] | Activity (A549 [6]) | Activity (U-373MG ATCC [7]) | Activity (A549 [8]) | Activity (A549 [9]) | Activity (A549 [10]) | Activity (U-373MG ATCC [11]) | Activity (A549 [12]) | Activity (U-373MG ATCC [13]) | inhibition (Sus scrofa) [%] |
| --- | --- | --- | --- | --- | --- | --- | --- | --- | --- | --- | --- | --- | --- | --- | --- | --- | --- | --- |
| C[C@@H]1C[C@@H](O[C@H]2O[C@H](CO)[C@@H](O)[C@H](O)[C@H]2O)[C@]2(O)O[C@@H]3C[C@@]4(C=O)[C@@H](CC[C@@H]5[C@@H]4CC[C@]4(C)[C@@H](C6=CC(=O)OC6)CC[C@]54O)C[C@H]3O[C@@H]2O1 | Active | Active | 0.3 | 0.2 | 0.4 | 0.2 | 0.5 | 0.4 | 0.5 | Active | Active | – | – | – | – | – | – | – |
| C[C@@H]1C[C@@H](O)[C@]2(O)O[C@@H]3C[C@@]4(C=O)[C@@H](CC[C@@H]5[C@@H]4CC[C@]4(C)[C@@H](C6=CC(=O)OC6)CC[C@]54O)C[C@H]3O[C@@H]2O1 [CALACTIN] | – | – | 0.04 | 0.02 | 0.05 | 0.02 | 0.08 | 0.2 | 0.4 | – | – | – | – | – | – | – | – | – |
| C[C@]12[C@H](O)C[C@H]3[C@@H](CC[C@H]4C[C@H]5O[C@@H]6O[C@H](CO)C[C@@H](O)[C@]6(O)O[C@@H]5C[C@@]43CO)[C@@]1(O)CC[C@@H]2C1=CC(=O)OC1 [GHALAKINOSIDE] | – | Active | 0.3 | 0.08 | 0.3 | 0.08 | 0.3 | 0.4 | 0.3 | – | Active | Active | Active | – | – | – | – | – |
| C[C@]12CC[C@H]3[C@@H](CC[C@H]4C[C@H]5O[C@@H]6O[C@H](CO)C[C@@H](O)[C@]6(O)O[C@@H]5C[C@@]43C=O)[C@@]1(O)CC[C@@H]2C1=CC(=O)OC1 | – | – | 0.5 | 0.08 | 0.9 | 0.3 | 0.6 | 0.4 | 0.5 | – | – | – | – | – | – | – | – | – |
| C[C@]12CC[C@H]3[C@@H](CC[C@H]4C[C@H]5O[C@@H]6O[C@H](CO)C[C@@H](O)[C@]6(O)O[C@@H]5C[C@@]43CO)[C@@]1(O)CC[C@@H]2C1=CC(=O)OC1 | – | – | 0.4 | 0.04 | 0.2 | 0.04 | 0.3 | 0.1 | 0.4 | – | – | – | – | – | – | – | – | – |
| CC(=O)O[C@@H]1C[C@]2(O)[C@@H]3CC[C@H]4C[C@H]5O[C@@H]6O[C@H](CO)C[C@@H](O)[C@]6(O)O[C@@H]5C[C@]4(C=O)[C@H]3CC[C@]2(C)[C@H]1C1=CC(=O)OC1 | – | – | 4.1 | 0.8 | 6.4 | 1.2 | 4.4 | 3.4 | 1.2 | – | – | – | – | Active | Active | Active | Active | – |
| C[C@@H]1C[C@@H](O)[C@]2(O)O[C@@H]3C[C@@]4(C=O)[C@@H](CC[C@@H]5[C@@H]4CC[C@]4(C)[C@@H](C6=CC(=O)OC6)[C@H](O)C[C@]54O)C[C@H]3O[C@@H]2O1 | – | – | 3.8 | 0.4 | 4.4 | 1 | 2.3 | 2.6 | 1.7 | – | – | – | – | – | – | – | – | – |
| C[C@@H]1CC2(NC(=O)CS2)[C@]2(O)O[C@@H]3C[C@@]4(CO)[C@@H](CC[C@@H]5[C@@H]4CC[C@]4(C)[C@@H](C6=CC(=O)OC6)CC[C@]54O)C[C@H]3O[C@@H]2O1 (stereo not given in full) | – | – | – | 0.008 | – | – | – | – | – | – | – | – | – | – | – | – | – | – |
| C[C@@H]1O[C@@H](O[C@H]2C[C@@H](O)[C@]3(CO)[C@H]4[C@H](O)C[C@]5(C)[C@@H](C6=CC(=O)OC6)CC[C@]5(O)[C@@H]4CC[C@]3(O)C2)[C@H](O)[C@H](O)[C@H]1O | – | – | – | – | – | – | – | – | – | – | – | – | – | – | – | – | – | 100 |
| C[C@@H]1C[C@@H](O)[C@]2(O)O[C@@H]3C[C@@]4(CO)[C@@H](CC[C@@H]5[C@@H]4C[C@@H](O)[C@]4(C)[C@@H](C6=CC(=O)OC6)CC[C@]54O)C[C@H]3O[C@@H]2O1 | – | – | 0.3 | 0.05 | 0.3 | 0.05 | 0.3 | 0.4 | 0.7 | – | – | – | – | – | – | – | – | – |
